Test results as given in ChEMBL document CHEMBL5543097, “Synthesis and structure-activity relationships of novel 14-membered 2-fluoro ketolides with structural modification at the C11 position” (Eur J Med Chem, 2024).
Converted amounts (≈) assume the structure as drawn.

Experiments:
[1] = system: Staphylococcus epidermidis; experiment: Potency index, ratio of telithromycin MIC to test compound MIC for antibacterial activity against erythromycin-resistant Staphylococcus epidermidis 19-6 assessed as inhibition of visible bacterial growth incubated for 18 hrs by broth microdilution method; assay type: functional
[2] = Cytotoxicity against mouse AML12 cells assessed as reduction in cell viability incubated for 48 hrs by MTT assay; assay type: toxicity, cell-based
[3] = system: Streptococcus pneumoniae; experiment: Potency index, ratio of telithromycin MIC to test compound MIC for antibacterial activity against Streptococcus pneumoniae SPN19-13 assessed as inhibition of visible bacterial growth incubated for 18 hrs by broth microdilution method; assay type: functional
[4] = system: Streptococcus pneumoniae; experiment: Potency index, ratio of telithromycin MIC to test compound MIC for antibacterial activity against Streptococcus pneumoniae SPN19-8 assessed as inhibition of visible bacterial growth incubated for 18 hrs by broth microdilution method; assay type: functional
[5] = system: Staphylococcus epidermidis; experiment: Antibacterial activity against erythromycin-resistant Staphylococcus epidermidis 19-4 assessed as inhibition of visible bacterial growth incubated for 18 hrs by broth microdilution method; assay type: functional
[6] = system: Staphylococcus epidermidis; experiment: Potency index, ratio of telithromycin MIC to test compound MIC for antibacterial activity against erythromycin-resistant Staphylococcus epidermidis 19-8 assessed as inhibition of visible bacterial growth incubated for 18 hrs by broth microdilution method; assay type: functional
[7] = system: Streptococcus pneumoniae; experiment: Potency index, ratio of telithromycin MIC to test compound MIC for antibacterial activity against Streptococcus pneumoniae SPN19-14 assessed as inhibition of visible bacterial growth incubated for 18 hrs by broth microdilution method; assay type: functional
[8] = system: Staphylococcus epidermidis; experiment: Potency index, ratio of telithromycin MIC to test compound MIC for antibacterial activity against erythromycin-resistant Staphylococcus epidermidis 19-4 assessed as inhibition of visible bacterial growth incubated for 18 hrs by broth microdilution method; assay type: functional
[9] = system: Staphylococcus epidermidis; experiment: Potency index, ratio of telithromycin MIC to test compound MIC for antibacterial activity against erythromycin-resistant Staphylococcus epidermidis 19-5 assessed as inhibition of visible bacterial growth incubated for 18 hrs by broth microdilution method; assay type: functional
[10] = system: Streptococcus pyogenes; experiment: Antibacterial activity against erythromycin-resistant Streptococcus pyogenes ATCC 19615 assessed as inhibition of visible bacterial growth incubated for 18 hrs by broth microdilution method; assay type: functional
[11] = system: Staphylococcus epidermidis; experiment: Potency index, ratio of telithromycin MIC to test compound MIC for antibacterial activity against erythromycin-resistant Staphylococcus epidermidis 19-11 assessed as inhibition of visible bacterial growth incubated for 18 hrs by broth microdilution method; assay type: functional
[12] = system: Streptococcus pneumoniae; experiment: Antibacterial activity against erythromycin-resistant Streptococcus pneumoniae SPN19-8 assessed as inhibition of visible bacterial growth incubated for 18 hrs by broth microdilution method; assay type: functional
[13] = system: Staphylococcus epidermidis; experiment: Antibacterial activity against erythromycin-resistant Staphylococcus epidermidis 19-8 assessed as inhibition of visible bacterial growth incubated for 18 hrs by broth microdilution method; assay type: functional
[14] = system: Streptococcus agalactiae; experiment: Antibacterial activity against erythromycin-resistant Streptococcus agalactiae 19-9 assessed as inhibition of visible bacterial growth incubated for 18 hrs by broth microdilution method; assay type: functional
[15] = system: Staphylococcus epidermidis; experiment: Antibacterial activity against erythromycin-resistant Staphylococcus epidermidis 19-11 assessed as inhibition of visible bacterial growth incubated for 18 hrs by broth microdilution method; assay type: functional
[16] = system: Streptococcus pneumoniae; experiment: Antibacterial activity against erythromycin-resistant Streptococcus pneumoniae SPN19-13 assessed as inhibition of visible bacterial growth incubated for 18 hrs by broth microdilution method; assay type: functional
[17] = system: Staphylococcus epidermidis; experiment: Antibacterial activity against erythromycin-resistant Staphylococcus epidermidis 19-6 assessed as inhibition of visible bacterial growth incubated for 18 hrs by broth microdilution method; assay type: functional
[18] = system: Staphylococcus epidermidis; experiment: Antibacterial activity against erythromycin-resistant Staphylococcus epidermidis 19-9 assessed as inhibition of visible bacterial growth incubated for 18 hrs by broth microdilution method; assay type: functional
[19] = system: Staphylococcus epidermidis; experiment: Potency index, ratio of telithromycin MIC to test compound MIC for antibacterial activity against erythromycin-resistant Staphylococcus epidermidis 19-9 assessed as inhibition of visible bacterial growth incubated for 18 hrs by broth microdilution method; assay type: functional
[20] = system: Staphylococcus epidermidis; experiment: Antibacterial activity against erythromycin-resistant Staphylococcus epidermidis 19-5 assessed as inhibition of visible bacterial growth incubated for 18 hrs by broth microdilution method; assay type: functional
[21] = system: Streptococcus pneumoniae; experiment: Antibacterial activity against erythromycin-resistant Streptococcus pneumoniae SPN19-14 assessed as inhibition of visible bacterial growth incubated for 18 hrs by broth microdilution method; assay type: functional
[22] = Metabolic stability in human liver microsome assessed as parent compound remaining in presence of NADPH measured at 60 mins by LC-MS/MS analysis; assay type: ADME; details: liver microsomes, read-out: Stability
[23] = Metabolic stability in human liver microsome assessed as half life measured at 60 mins by LC-MS/MS analysis; assay type: ADME; details: liver microsomes
[24] = system: Moraxella catarrhalis; experiment: Antibacterial activity against Moraxella catarrhalis BCA 19-5 assessed as inhibition of bacterial growth incubated for 24 hrs by CLSI based broth microdilution method; assay type: functional; details: Moraxella catarrhalis, BCA 19-5, 24 h, read-out: MIC
[25] = system: Haemophilus influenzae; experiment: Antibacterial activity against Haemophilus influenzae HIN 19-15 assessed as inhibition of bacterial growth incubated for 20 to 24 hrs by CLSI based broth microdilution method; assay type: functional; details: time 20-24 hrs
[26] = system: Moraxella catarrhalis; experiment: Antibacterial activity against Moraxella catarrhalis BCA 19-31 assessed as inhibition of bacterial growth incubated for 24 hrs by CLSI based broth microdilution method; assay type: functional; details: BCA 19-31, 24 h
[27] = Metabolic stability in human liver microsome assessed as parent compound remaining in absence of NADPH measured at 60 mins by LC-MS/MS analysis; assay type: ADME; details: liver microsomes, read-out: Stability
[28] = Metabolic stability in human liver microsome assessed as intrinsic clearance measured at 60 mins by LC-MS/MS analysis; assay type: ADME; details: liver microsomes, read-out: CLH
[29] = system: Moraxella catarrhalis; experiment: Antibacterial activity against Moraxella catarrhalis BCA 19-6 assessed as inhibition of bacterial growth incubated for 24 hrs by CLSI based broth microdilution method; assay type: functional; details: Moraxella catarrhalis, BCA 19-6, 24 h, read-out: MIC
[30] = system: Haemophilus influenzae; experiment: Antibacterial activity against Haemophilus influenzae HIN 19-18 assessed as inhibition of bacterial growth incubated for 20 to 24 hrs by CLSI based broth microdilution method; assay type: functional; details: HIN 19-18, time 20-24 hrs
[31] = system: Haemophilus influenzae; experiment: Antibacterial activity against Haemophilus influenzae HIN 20-18 assessed as inhibition of bacterial growth incubated for 20 to 24 hrs by CLSI based broth microdilution method; assay type: functional; details: time 20-24 hrs
[32] = system: Streptococcus agalactiae; experiment: Antibacterial activity against erythromycin-resistant Streptococcus agalactiae 19-8 assessed as inhibition of visible bacterial growth incubated for 18 hrs by broth microdilution method; assay type: functional

SMILES	CC50 at 48 h [2]	MIC [5]	MIC [10]	MIC [12]	MIC [13]	MIC [14]	MIC [15]	MIC [16]	MIC [17]	MIC [18]	MIC [20]	MIC [21]	remaining at 1 h [22]	half-life [23]	MIC [24]	MIC [25]	MIC [26]	remaining at 1 h [27]	MIC [29]	MIC [30]	also measured
CC[C@H]1OC(=O)[C@@](C)(F)C(=O)[C@H](C)[C@@H](O[C@@H]2O[C@H](C)C[C@H](N(C)C)[C@H]2O)[C@](C)(OC)C[C@@H](C)C(=O)[C@H](C)[C@H]2N(CCCOC(=O)Nc3ccc4sccc4c3)C(=O)O[C@]12C	11.6 µM	0.03 mg/L (≈ 0.0347 µM)	< 0.03 mg/L	0.06 mg/L (≈ 0.0694 µM)	0.06 mg/L (≈ 0.0694 µM)	0.25 mg/L (≈ 0.289 µM)	< 0.03 mg/L	< 0.03 mg/L	0.06 mg/L (≈ 0.0694 µM)	1 mg/L (≈ 1.16 µM)	< 0.03 mg/L	0.03 mg/L (≈ 0.0347 µM)									Ratio [1]: 4; Ratio [3]: <4; Ratio [4]: <4; Ratio [6]: 4; Ratio [7]: <4; Ratio [8]: 4; Ratio [9]: 4; Ratio [11]: 4; Ratio [19]: 4
CC[C@H]1OC(=O)[C@@](C)(F)C(=O)[C@H](C)[C@@H](O[C@@H]2O[C@H](C)C[C@H](N(C)C)[C@H]2O)[C@](C)(OC)C[C@@H](C)C(=O)[C@H](C)[C@H]2N(CCCOC(=O)Nc3c(C)noc3C)C(=O)O[C@]12C	> 100 µM	0.25 mg/L (≈ 0.302 µM)	< 0.03 mg/L	0.25 mg/L (≈ 0.302 µM)	0.25 mg/L (≈ 0.302 µM)	4 mg/L (≈ 4.84 µM)	0.125 mg/L (≈ 0.151 µM)	0.25 mg/L (≈ 0.302 µM)	0.25 mg/L (≈ 0.302 µM)	0.5 mg/L (≈ 0.605 µM)	0.03 mg/L (≈ 0.0363 µM)	0.25 mg/L (≈ 0.302 µM)	26.6%	37.2 min	0.5 mg/L (≈ 0.605 µM)	1 mg/L (≈ 1.21 µM)	0.125 mg/L (≈ 0.151 µM)	101%	0.5 mg/L (≈ 0.605 µM)	1 mg/L (≈ 1.21 µM)	microsomal CLint [28]: 37.3 µL/min/mg; MIC [31]: 8 mg/L (≈ 9.67 µM)
CC[C@H]1OC(=O)[C@@](C)(F)C(=O)[C@H](C)[C@@H](O[C@@H]2O[C@H](C)C[C@H](N(C)C)[C@H]2O)[C@](C)(OC)C[C@@H](C)C(=O)[C@H](C)[C@H]2N(CCCOC(=O)Nc3cccc(C)c3)C(=O)O[C@]12C	76.8 µM	< 0.03 mg/L	< 0.03 mg/L	0.125 mg/L (≈ 0.152 µM)	< 0.03 mg/L	0.06 mg/L (≈ 0.073 µM)	< 0.03 mg/L	< 0.03 mg/L	0.03 mg/L (≈ 0.0365 µM)	0.06 mg/L (≈ 0.073 µM)	< 0.03 mg/L	< 0.03 mg/L	1.2%	5.2 min	< 0.03 mg/L	8 mg/L (≈ 9.73 µM)	< 0.03 mg/L	97.5%	< 0.03 mg/L	8 mg/L (≈ 9.73 µM)	MIC [32]: < 0.03 mg/L; microsomal CLint [28]: 266 µL/min/mg
CC[C@H]1OC(=O)[C@@](C)(F)C(=O)[C@H](C)[C@@H](O[C@@H]2O[C@H](C)C[C@H](N(C)C)[C@H]2O)[C@](C)(OC)C[C@@H](C)C(=O)[C@H](C)[C@H]2N(CCCOC(=O)Nc3cccc(SC)c3)C(=O)O[C@]12C	34.4 µM	< 0.03 mg/L	< 0.03 mg/L	< 0.03 mg/L	< 0.03 mg/L	0.125 mg/L (≈ 0.146 µM)	0.03 mg/L (≈ 0.0351 µM)	< 0.03 mg/L	0.03 mg/L (≈ 0.0351 µM)	< 0.03 mg/L	0.03 mg/L (≈ 0.0351 µM)	< 0.03 mg/L			< 0.03 mg/L	2 mg/L (≈ 2.34 µM)	< 0.03 mg/L		< 0.03 mg/L	1 mg/L (≈ 1.17 µM)	Ratio [1]: 4; MIC [32]: < 0.03 mg/L; Ratio [6]: 4; Ratio [8]: 4; Ratio [9]: 4; Ratio [11]: 4; Ratio [19]: 4
CC[C@H]1OC(=O)[C@@](C)(F)C(=O)[C@H](C)[C@@H](O[C@@H]2O[C@H](C)C[C@H](N(C)C)[C@H]2O)[C@](C)(OC)C[C@@H](C)C(=O)[C@H](C)[C@H]2N(CCCOC(=O)Nc3ccccc3C)C(=O)O[C@]12C	> 100 µM	0.06 mg/L (≈ 0.073 µM)	< 0.03 mg/L	0.125 mg/L (≈ 0.152 µM)	0.06 mg/L (≈ 0.073 µM)	0.5 mg/L (≈ 0.608 µM)	< 0.03 mg/L	0.125 mg/L (≈ 0.152 µM)	0.125 mg/L (≈ 0.152 µM)	0.25 mg/L (≈ 0.304 µM)	< 0.03 mg/L	0.125 mg/L (≈ 0.152 µM)	73.3%	176 min	0.125 mg/L (≈ 0.152 µM)	4 mg/L (≈ 4.87 µM)	0.05 mg/L (≈ 0.0608 µM)	101%	0.125 mg/L (≈ 0.152 µM)	2 mg/L (≈ 2.43 µM)	microsomal CLint [28]: 4 µL/min/mg; MIC [31]: 16 mg/L (≈ 19.5 µM)
